Experimental findings from patent publication US7985767B2, “Therapeutic amides” (Allergan, Inc., priority 2006, dated 2011) are described below.

In one assay the target is EP2 (Homo sapiens, UniProt P43116). As to the kind of experiment: EP2 binding (Ki). The text has this:
(§1) U.S. patent application Ser. No. 11/553,143, filed on Oct. 26, 2006, incorporated by reference herein, describes the methods used to obtain the in vitro data in the table below.

The target of a further assay is T1, hDP (Homo sapiens, UniProt Q13258).
T1 sequence (Q13258 1-359): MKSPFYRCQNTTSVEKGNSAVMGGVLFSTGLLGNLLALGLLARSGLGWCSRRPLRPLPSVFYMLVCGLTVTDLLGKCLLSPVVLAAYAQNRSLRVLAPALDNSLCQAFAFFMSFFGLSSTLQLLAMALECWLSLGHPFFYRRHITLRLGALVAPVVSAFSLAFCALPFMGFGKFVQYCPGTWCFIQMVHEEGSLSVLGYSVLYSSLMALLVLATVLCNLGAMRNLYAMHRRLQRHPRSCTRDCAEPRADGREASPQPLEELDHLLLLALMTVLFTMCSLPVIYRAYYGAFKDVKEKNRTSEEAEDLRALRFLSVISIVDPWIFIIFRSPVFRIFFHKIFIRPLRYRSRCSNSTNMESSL
Put plainly: Other receptors functional EC50, hDP. Type of assay: cell-based.
Source text: as §1

The target of the next assay is T2, hTP (Homo sapiens, UniProt P21731).
T2 sequence (P21731 1-343): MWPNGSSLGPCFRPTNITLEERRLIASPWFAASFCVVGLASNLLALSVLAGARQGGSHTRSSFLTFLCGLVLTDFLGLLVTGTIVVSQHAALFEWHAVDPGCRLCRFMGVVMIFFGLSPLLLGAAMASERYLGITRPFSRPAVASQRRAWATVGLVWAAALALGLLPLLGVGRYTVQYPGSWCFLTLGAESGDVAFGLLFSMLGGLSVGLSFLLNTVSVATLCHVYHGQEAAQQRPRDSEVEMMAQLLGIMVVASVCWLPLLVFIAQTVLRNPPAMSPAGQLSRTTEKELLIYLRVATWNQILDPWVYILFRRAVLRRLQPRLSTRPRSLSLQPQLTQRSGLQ
As to the kind of experiment: Other receptors functional EC50, hTP. Type of assay: cell-based.
Source text: as §1

The structures appear in SMILES notation.

As usually defined, the Ki is a measure of affinity in units of concentration, obtained from inhibition or displacement. A high value points to a looser hold on the target. As usually defined, the EC50 is the midpoint of the concentration-response curve.

Chain of EP2 (P43116 whole entry): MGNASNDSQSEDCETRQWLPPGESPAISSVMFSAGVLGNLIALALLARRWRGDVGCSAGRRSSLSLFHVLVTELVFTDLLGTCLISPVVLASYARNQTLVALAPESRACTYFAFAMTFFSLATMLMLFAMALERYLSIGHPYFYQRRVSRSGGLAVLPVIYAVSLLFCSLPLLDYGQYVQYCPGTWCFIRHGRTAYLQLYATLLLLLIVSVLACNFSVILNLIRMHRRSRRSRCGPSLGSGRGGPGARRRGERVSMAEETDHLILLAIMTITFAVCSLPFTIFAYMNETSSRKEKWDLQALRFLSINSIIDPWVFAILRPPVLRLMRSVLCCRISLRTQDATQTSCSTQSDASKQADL

`CCCCCC(O)c1ccc(N(CCCc2ccc(C(=O)O)s2)C(C)=O)cc1` (stereo not drawn) [5-(-3-(N-(4-(1-hydroxyhexyl)phenyl)acetamido)propyl)thiophene-2-carboxylic acid] yielded an inhibition constant Ki at EP2 above 10 µM. Further, the concentration for a half-maximal effect (EC50) on hDP stood at 4.76 µM. At hTP, `CCCCCC(O)c1ccc(N(CC#CCCCC(=O)O)C(C)=O)cc1` (stereo not drawn) [7-(N-(4-(1-hydroxyhexyl)phenyl)acetamido)hept-5-ynoic acid] returned a concentration giving a half-maximal response (EC50) of 8.53 µM.
